Target: AFUA_6g12080 (Orf12080) module 1 C*AT (Aspergillus fumigatus, UniProt Q4WLW5)
Type: biochemical
Details: ATP, 10 mM MgCl2, pH 7.4, 25 °C, 5 μM enzyme (apo); off-pathway acyl-AMP release

Sequence of AFUA_6g12080 (Orf12080) module 1 C*AT (Q4WLW5 1-885): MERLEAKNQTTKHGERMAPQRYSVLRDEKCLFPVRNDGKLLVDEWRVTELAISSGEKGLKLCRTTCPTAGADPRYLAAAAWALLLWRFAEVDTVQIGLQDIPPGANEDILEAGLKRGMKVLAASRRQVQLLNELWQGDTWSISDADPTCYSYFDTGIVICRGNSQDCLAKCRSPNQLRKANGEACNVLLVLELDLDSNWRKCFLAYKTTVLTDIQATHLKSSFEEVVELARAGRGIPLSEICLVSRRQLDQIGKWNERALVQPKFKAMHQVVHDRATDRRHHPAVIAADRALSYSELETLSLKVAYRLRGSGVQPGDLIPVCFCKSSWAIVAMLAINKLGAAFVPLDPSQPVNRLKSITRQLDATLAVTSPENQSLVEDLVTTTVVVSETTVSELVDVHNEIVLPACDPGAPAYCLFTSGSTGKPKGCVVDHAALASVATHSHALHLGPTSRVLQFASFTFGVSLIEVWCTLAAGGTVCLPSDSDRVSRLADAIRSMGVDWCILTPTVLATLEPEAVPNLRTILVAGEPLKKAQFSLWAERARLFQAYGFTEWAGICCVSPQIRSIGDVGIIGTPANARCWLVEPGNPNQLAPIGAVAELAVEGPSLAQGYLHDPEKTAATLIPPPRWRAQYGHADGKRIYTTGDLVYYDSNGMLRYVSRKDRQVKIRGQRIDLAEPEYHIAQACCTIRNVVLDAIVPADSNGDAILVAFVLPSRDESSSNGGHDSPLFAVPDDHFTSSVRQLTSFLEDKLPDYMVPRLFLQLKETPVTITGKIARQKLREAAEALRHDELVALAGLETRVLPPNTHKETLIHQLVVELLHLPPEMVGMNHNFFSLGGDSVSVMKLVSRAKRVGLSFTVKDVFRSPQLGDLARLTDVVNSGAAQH

Nc1ccccc1C(=O)O [anthranilic acid, 2-aminobenzoic acid]
Km: 18 µM

— publication PMC2854178 (Biochemistry, 2010)
